Measured values taken from patent US20160222014A1, “COMPOUNDS FOR REGULATING FAK AND/OR SRC PATHWAYS” (ASANA BIOSCIENCES, LLC, priority 2013, published 2016).

Legend:
Format in all cases: biochemical
[1] = target: T1, Recombinant Src enzyme (Homo sapiens, UniProt P12931); test: Src HTRF assay
T1 construct: purchased Millipore 14-326; host or cells: Sf21 insect cells
Experimental: Enzyme assay buffer, supplements, and compounds were prepared as described in the FAK HTRF assay.
Recombinant Src enzyme expressed in Sf21 insect cells was obtained (Millipore, Cat No. 14-326, Lot # D8CN006U-K). A 35 μM stock was used at a final concentration of 5 nM in the assay.
Tyk2 synthetic peptide-Biotinylated-N-terminal tag-[…]
A custom made substrate, a Tyk2 synthetic peptide, biotinylated with an N-terminal tag was obtained (Biopeptide and Sigma, Cat. No. 14918001 VC80021). A 100 μM stock was used at a final concentration of 0.5 μM in the assay.
A 10 mM stock in 100 μL enzyme assay buffer pH7.4 was prepared freshly and used at a final concentration of 10 μM in the assay.
Dasatinib (Bristol-Myers Squibb)
The assay procedure was the same as discussed above.

[2] = target: T2, AURKB (Aurora B) enzyme (Homo sapiens, UniProt Q96GD4); test: Aurora B HTRF assay; conditions: read-out: AuroraB IC50
T2 construct: purchased Invitrogen PVR 130
T2 sequence (Q96GD4 whole entry): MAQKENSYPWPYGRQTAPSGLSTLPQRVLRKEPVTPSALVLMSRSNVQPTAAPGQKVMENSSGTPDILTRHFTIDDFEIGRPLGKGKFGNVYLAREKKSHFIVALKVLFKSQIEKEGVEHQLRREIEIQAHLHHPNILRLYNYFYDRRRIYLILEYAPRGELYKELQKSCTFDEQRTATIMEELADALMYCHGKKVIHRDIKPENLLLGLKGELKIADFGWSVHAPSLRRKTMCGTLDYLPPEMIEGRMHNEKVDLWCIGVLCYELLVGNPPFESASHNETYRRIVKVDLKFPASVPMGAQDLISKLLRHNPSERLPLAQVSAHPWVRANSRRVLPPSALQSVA
Experimental: AURKB (Aurora B) enzyme was obtained (Invitrogen, Cat No. PVR 130, Lot No. 857013J). A 8.64 μM stock was used at a final concentration 5 nM in the assay.
Lance@Ultera Ulight-PLK (Ser137) peptide substrate
Peptide substrate was obtained from Perkin Elmer (Lot#1629793, TRF0110-M). A 5 μM stock was used at a final concentration of 50 nM in the assay.
10 mM stock prepared freshly as above, used at a final concentration of 30 μM in assay.
The plate was covered with aluminum foil, put on a shaker and incubated 1 h at rt.
Reference: Pfizer aurora inhibitor PF-03814735 was procured from Selleckchem: Cat# S2725
Using stock Lance detection buffer, 1× Lance detection buffer was prepared. • 1. 10× lance detection buffer was diluted to 1×, mixed well and 100 μL was removed, and was used to substitute with antibody and EDTA (for a total of 2200 μL). • 2. 88 μL of […] EDTA was added from 500 mM stock. • 3. 14 μL Europium labeled antibody (LANCE@ Ultra EU-Anti-P-PLK(Ser 137), TRF0203-D, Lot No. 1630351, Perkin Elmer) was added from 625 nM stock; required concentration was 2 nM in the assay. • 4. The buffer well was mixed and 20 μL was transferred to the each well in the assay plate. • 5. The solutions were incubated for 1 h at rt. • 6. The plate was read using MET-HTRF® protocol using Pherastar equipment.

[3] = target: T3, recombinant human FAK1 (Homo sapiens, UniProt Q05397); test: FAK1 HTRF assay
T3 construct: fused on or other part: N-terminal 6xHis tag
T3 sequence (Q05397 422-680 limits assumed): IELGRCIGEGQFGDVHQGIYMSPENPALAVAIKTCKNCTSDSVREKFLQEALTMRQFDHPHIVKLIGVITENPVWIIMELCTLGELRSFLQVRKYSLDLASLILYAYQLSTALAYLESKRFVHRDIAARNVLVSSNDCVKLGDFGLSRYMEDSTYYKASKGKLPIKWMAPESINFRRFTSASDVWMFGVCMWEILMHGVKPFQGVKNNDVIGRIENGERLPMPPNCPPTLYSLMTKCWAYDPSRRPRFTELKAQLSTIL
Procedure, shortened: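 IC50 values derive from HTRF % inhibition (ratio 665/620 nm, Eu–anti-phosphotyrosine 0.1 nM, SA-APC 12 nM). The kinase step ran 45 min at room temperature, pairing 10 nM His-FAK1(692–end) from baculovirus with 0.5 μM gastrin Tyr87 biotin-peptide and a reagent at 10 μM final, pH 7.4. Compound dilutions began at 10 μM.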

T1 sequence (P12931 whole entry): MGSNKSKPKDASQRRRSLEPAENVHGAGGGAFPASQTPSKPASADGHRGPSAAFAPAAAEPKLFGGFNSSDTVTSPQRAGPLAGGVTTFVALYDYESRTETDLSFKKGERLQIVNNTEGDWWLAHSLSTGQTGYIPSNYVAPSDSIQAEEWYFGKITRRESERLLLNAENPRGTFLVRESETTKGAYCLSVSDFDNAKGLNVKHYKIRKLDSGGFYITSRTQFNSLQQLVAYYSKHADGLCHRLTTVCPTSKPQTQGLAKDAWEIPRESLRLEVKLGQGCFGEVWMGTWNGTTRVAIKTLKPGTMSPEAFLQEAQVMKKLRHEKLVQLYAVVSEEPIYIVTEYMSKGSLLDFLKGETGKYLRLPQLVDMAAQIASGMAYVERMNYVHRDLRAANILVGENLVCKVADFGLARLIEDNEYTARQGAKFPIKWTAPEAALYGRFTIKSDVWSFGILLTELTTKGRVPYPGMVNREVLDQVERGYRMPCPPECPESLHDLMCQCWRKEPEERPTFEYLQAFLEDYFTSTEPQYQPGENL

| IC50 [1] | IC50 [2] | IC50 [3] | SMILES |
| --- | --- | --- | --- |
| > 1000 nM | < 20 nM |  | CN(C)CCOc1cccc(Nc2cc3c(ccn3S(=O)(=O)c3ccccc3OC(F)(F)F)cn2)c1 [Example 126] |
| > 1000 nM | < 20 nM |  | COc1cccc(Nc2ncc3ccn(S(=O)(=O)c4ccccc4C#N)c3n2)c1 [Example 178] |
| < 20 nM | < 20 nM | < 20 nM | Cc1cc(Nc2ncc3ccn(S(=O)(=O)c4ccccc4C#N)c3n2)ccc1N1CCNCC1 [Example 212] |
| > 1000 nM | < 20 nM |  | O=S(=O)(c1cccc2cccnc12)n1ncc2cnc(Nc3ccc(N4CC5CC4CN5)cc3)cc21 (stereo not shown) [Example 383] |
| > 1000 nM |  | < 20 nM | COc1cc(N2CCN(C)CC2)ccc1Nc1cc2c(ccn2S(=O)(=O)c2cccc3cccnc23)cn1 [Example 407] |
| > 1000 nM |  | < 20 nM | N#Cc1ccccc1S(=O)(=O)n1ccc2cnc(Nc3ccc(N4CCC(O)CC4)cc3)cc21 [Example 414] |
| > 1000 nM |  | < 20 nM | COc1cc(N2CCC(OC)CC2)ccc1Nc1cc2c(ccn2S(=O)(=O)c2cccc3cccnc23)cn1 [Example 430] |
| < 20 nM |  | < 20 nM | C[C@H]1CN(c2ccc(Nc3ncc4ccn(Cc5ccccc5N(C)S(C)(=O)=O)c4n3)cc2)CCN1C [Example 491] |
| > 1000 nM |  | < 20 nM | COc1cc(N2CCN(C)CC2)ccc1Nc1cc2c(ccn2S(=O)(=O)c2ccccc2C#N)cn1 [Example 493] |
| < 20 nM |  | < 20 nM | CN(c1ccccc1Cn1ccc2cnc(Nc3ccc(N4CCN5CCCC5C4)cc3)nc21)S(C)(=O)=O (stereo not shown) [Example 496] |
| > 1000 nM | > 1000 nM |  | CC1(C)CN(S(=O)(=O)c2ccccc2C#N)c2cc(Nc3ccc(N4CCNCC4)cc3)ncc21 [Example 532] |
| > 1000 nM |  | < 20 nM | CN(C)C1CCN(c2ccc(Nc3cc4c(cn3)C(C)(C)CN4S(=O)(=O)c3cccc4cccnc34)cc2)CC1 [Example 611] |
| > 1000 nM |  | > 1000 nM | CN(C)C1CCN(c2ccc(Nc3ncc4c(n3)N(c3ccccc3NS(C)(=O)=O)CC4(C)C)cc2)CC1 [Example 784] |
| > 1000 nM |  | > 1000 nM | CN(C)C1CCN(c2ccc(Nc3nc4c(ccn4Cc4cccnc4N(C)S(C)(=O)=O)cc3C#N)cc2)CC1 [Example 785] |
| > 1000 nM |  | > 1000 nM | CC(=O)N(C)c1ccccc1Cn1ccc2cnc(Nc3ccc(N4CCC(N(C)C)CC4)cc3)nc21 [Example 788] |

More lines, now with the values behind:

| SMILES | IC50 [1] | IC50 [2] | IC50 [3] |
| --- | --- | --- | --- |
| FC(F)Oc1ccccc1Cn1ccc2cnc(Nc3ccc4ncsc4c3)cc21 [Example 20] | > 1000 nM | > 1000 nM |  |
| CN(c1cccc(Cn2ccc3cnc(Nc4ccc5c(c4)CCC(=O)N5)nc32)c1)S(C)(=O)=O [Example 50] | > 1000 nM | < 20 nM |  |
| CNS(=O)(=O)c1cccc(Cn2ccc3cnc(Nc4ccc5c(c4)CCC(=O)N5)nc32)c1 [Example 60] | > 1000 nM | < 20 nM |  |
| CC(=O)Nc1cccc(Nc2cc3c(cn2)cnn3S(=O)(=O)c2ccccc2OC(F)(F)F)c1 [Example 86] | > 1000 nM | > 1000 nM |  |
| Cc1nn(S(=O)(=O)c2ccccc2OC(F)(F)F)c2cc(Nc3ccc4c(c3)CCC(=O)N4)ncc12 [Example 90] | > 1000 nM | < 20 nM |  |
| O=c1[nH]c2ccc(Nc3ncc4ccn(S(=O)(=O)c5ccccc5OC(F)(F)F)c4n3)cc2[nH]1 [Example 93] | > 1000 nM | < 20 nM |  |
| CN(c1ncccc1Cn1ccc2cnc(Nc3ccc(N4CCNCC4=O)cc3)nc21)S(C)(=O)=O [Example 102] | > 1000 nM | < 20 nM |  |
| CN(c1ncccc1Cn1ccc2cnc(Nc3ccc(N4CCOCC4)cn3)nc21)S(C)(=O)=O [Example 107] | > 1000 nM | < 20 nM |  |
| CN1C(=O)CCc2cc(Nc3ncc4ccn(Cc5cccnc5N(C)S(C)(=O)=O)c4n3)ccc21 [Example 136] | < 20 nM | < 20 nM | < 20 nM |
| Cc1cc(Nc2ncc3ccn(S(=O)(=O)c4cccc5cccnc45)c3n2)ccc1N1CCNCC1 [Example 196] | < 20 nM | < 20 nM | < 20 nM |
| CC(=O)Nc1ccc(Nc2cc3c(cn2)cnn3S(=O)(=O)c2cccc3cccnc23)cc1 [Example 315] | > 1000 nM | < 20 nM |  |
| COc1cc(N2CCNCC2)ccc1Nc1cc2c(ccn2Cc2cccnc2N(C)S(C)(=O)=O)cn1 [Example 366] | > 1000 nM | > 1000 nM |  |
| O=S(=O)(c1cccc2cccnc12)n1ccc2cnc(Nc3ccc(N4CCNCC4)cc3Cl)nc21 [Example 418] | > 1000 nM |  | < 20 nM |
| COc1cc(N2CCN(C)CC2)ccc1Nc1ncc2ccn(Cc3ccccc3N(C)S(C)(=O)=O)c2n1 [Example 424] | > 1000 nM |  | < 20 nM |
| Cc1cc(Nc2ncc3ccn(Cc4ccccc4N(C)S(C)(=O)=O)c3n2)ccc1N1CCNCC1 [Example 447] | < 20 nM |  | < 20 nM |
| O=S(=O)(c1cc(Cl)ccc1Cl)N1CC2(CC2)c2cnc(Nc3ccc(N4CCNCC4)cc3)nc21 [Example 510] | > 1000 nM | > 1000 nM |  |
| COc1cccc(Nc2ncc3ccn(Cc4ccccc4N(CCN4CCNCC4)S(C)(=O)=O)c3n2)c1 [Example 583] | > 1000 nM |  | > 1000 nM |
| C[C@H]1CN(c2ccc(Nc3ncc4ccn(Cc5cccnc5N(C)S(C)(=O)=O)c4n3)nc2)CCN1 [Example 585, (S)—N-methyl-N-(3-((2-((5-(3-methylpiperazin-1-yl)pyridin-2-yl)amino)-7H-pyrrolo[2,3-d]pyrimidin-7-yl)methyl)pyridin-2-yl)methanesulfonamide] | > 1000 nM |  | > 1000 nM |
| COc1cc(N2CCC(N(C)C)CC2)ccc1Nc1ncc2ccn(Cc3ccccc3N(C)S(C)(=O)=O)c2n1 [Example 628] | > 1000 nM | > 1000 nM |  |
| COc1cc(N2CCN[C@@H](C)C2)ccc1Nc1ncc2ccn(Cc3cccnc3N(C)S(C)(=O)=O)c2n1 [Example 629] | > 1000 nM | > 1000 nM |  |
| COc1cc(N2CCC(N(C)C)CC2)ccc1Nc1ncc2ccn(Cc3cccnc3N(C)S(C)(=O)=O)c2n1 [Example 634] | > 1000 nM | > 1000 nM |  |
| COc1cc(N2CCC(N(C)C)CC2)ccc1Nc1ncc2c(n1)N(S(=O)(=O)c1cccc3cccnc13)CC2(C)C [Example 650] | > 1000 nM |  | < 20 nM |
| CC1(C)CN(c2ccccn2)c2nc(Nc3ccc4[nH]cc(C5=CCNCC5)c4c3)ncc21 [Example 713] | > 1000 nM |  | < 20 nM |
| C[C@H]1CN(c2ccc(Nc3ncc4ccn(Cc5ccccc5NS(=O)(=O)CCCF)c4n3)c(F)c2)CCN1 [Example 729] | > 1000 nM |  | > 1000 nM |
| C[C@H]1CN(c2ccc(Nc3ncc4ccn(Cc5ccccc5N(C)S(=O)(=O)CCCF)c4n3)c(F)c2)CCN1 [Example 730] | > 1000 nM |  | > 1000 nM |
| CN(c1ncccc1Cn1cc(C#N)c2cnc(Nc3ccc(N4CCNCC4)cc3)nc21)S(C)(=O)=O [Example 732] | > 1000 nM |  | > 1000 nM |
| CN(c1ncccc1Cn1cc(C(N)=O)c2cnc(Nc3ccc(N4CCNCC4)cc3)nc21)S(C)(=O)=O [Example 734] | > 1000 nM |  | > 1000 nM |
| Cc1ccc(N(C)S(C)(=O)=O)c(Cn2ccc3cnc(Nc4ccc5c(c4)CC(=O)N5)nc32)c1 [Example 786] | > 1000 nM |  | < 20 nM |
| CC(=O)N(C)c1ccccc1Cn1ccc2cnc(Nc3ccc(N4CCN[C@H](C)C4)cc3)nc21 [Example 787] | > 1000 nM |  | > 1000 nM |
